Among the data in US20120245137A1 (Zalicus Pharmaceuticals Ltd., priority 2009, published 2012) are IC50 values, retold here.

Where only a bound is given, the exact number is not on record here.

Experiment [1] deals with human α1G T-type channels (Homo sapiens, UniProt O43497). Briefly: T-type calcium channel block, whole cell patch clamp, α1G. The class given is cell-based. Conditions: HEK cells stably expressing human α1G; mainly non-inactivated protocol; values above 10,000 nM represented as 10000. In a few lines:
(§1)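 Cells are stable HEK 293 lines carrying human α1G or α1H channels, patched in whole-cell mode. Resting block comes from the non-inactivated pre-pulse; voltage-dependent block from the inactivated protocol.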
A general note: The patch-clamp technique gives a direct electrical read-out from membranes.

For experiment [2], the target named is human α1H T-type channels (Homo sapiens, UniProt O95180). Briefly: T-type calcium channel block, whole cell patch clamp, α1H. As to conditions: HEK cells stably expressing human α1H; mainly non-inactivated protocol; values above 10,000 nM represented as 10000. The class given is cell-based. In a few lines:
as §1

Sequence of human α1G T-type channels (O43497 whole entry): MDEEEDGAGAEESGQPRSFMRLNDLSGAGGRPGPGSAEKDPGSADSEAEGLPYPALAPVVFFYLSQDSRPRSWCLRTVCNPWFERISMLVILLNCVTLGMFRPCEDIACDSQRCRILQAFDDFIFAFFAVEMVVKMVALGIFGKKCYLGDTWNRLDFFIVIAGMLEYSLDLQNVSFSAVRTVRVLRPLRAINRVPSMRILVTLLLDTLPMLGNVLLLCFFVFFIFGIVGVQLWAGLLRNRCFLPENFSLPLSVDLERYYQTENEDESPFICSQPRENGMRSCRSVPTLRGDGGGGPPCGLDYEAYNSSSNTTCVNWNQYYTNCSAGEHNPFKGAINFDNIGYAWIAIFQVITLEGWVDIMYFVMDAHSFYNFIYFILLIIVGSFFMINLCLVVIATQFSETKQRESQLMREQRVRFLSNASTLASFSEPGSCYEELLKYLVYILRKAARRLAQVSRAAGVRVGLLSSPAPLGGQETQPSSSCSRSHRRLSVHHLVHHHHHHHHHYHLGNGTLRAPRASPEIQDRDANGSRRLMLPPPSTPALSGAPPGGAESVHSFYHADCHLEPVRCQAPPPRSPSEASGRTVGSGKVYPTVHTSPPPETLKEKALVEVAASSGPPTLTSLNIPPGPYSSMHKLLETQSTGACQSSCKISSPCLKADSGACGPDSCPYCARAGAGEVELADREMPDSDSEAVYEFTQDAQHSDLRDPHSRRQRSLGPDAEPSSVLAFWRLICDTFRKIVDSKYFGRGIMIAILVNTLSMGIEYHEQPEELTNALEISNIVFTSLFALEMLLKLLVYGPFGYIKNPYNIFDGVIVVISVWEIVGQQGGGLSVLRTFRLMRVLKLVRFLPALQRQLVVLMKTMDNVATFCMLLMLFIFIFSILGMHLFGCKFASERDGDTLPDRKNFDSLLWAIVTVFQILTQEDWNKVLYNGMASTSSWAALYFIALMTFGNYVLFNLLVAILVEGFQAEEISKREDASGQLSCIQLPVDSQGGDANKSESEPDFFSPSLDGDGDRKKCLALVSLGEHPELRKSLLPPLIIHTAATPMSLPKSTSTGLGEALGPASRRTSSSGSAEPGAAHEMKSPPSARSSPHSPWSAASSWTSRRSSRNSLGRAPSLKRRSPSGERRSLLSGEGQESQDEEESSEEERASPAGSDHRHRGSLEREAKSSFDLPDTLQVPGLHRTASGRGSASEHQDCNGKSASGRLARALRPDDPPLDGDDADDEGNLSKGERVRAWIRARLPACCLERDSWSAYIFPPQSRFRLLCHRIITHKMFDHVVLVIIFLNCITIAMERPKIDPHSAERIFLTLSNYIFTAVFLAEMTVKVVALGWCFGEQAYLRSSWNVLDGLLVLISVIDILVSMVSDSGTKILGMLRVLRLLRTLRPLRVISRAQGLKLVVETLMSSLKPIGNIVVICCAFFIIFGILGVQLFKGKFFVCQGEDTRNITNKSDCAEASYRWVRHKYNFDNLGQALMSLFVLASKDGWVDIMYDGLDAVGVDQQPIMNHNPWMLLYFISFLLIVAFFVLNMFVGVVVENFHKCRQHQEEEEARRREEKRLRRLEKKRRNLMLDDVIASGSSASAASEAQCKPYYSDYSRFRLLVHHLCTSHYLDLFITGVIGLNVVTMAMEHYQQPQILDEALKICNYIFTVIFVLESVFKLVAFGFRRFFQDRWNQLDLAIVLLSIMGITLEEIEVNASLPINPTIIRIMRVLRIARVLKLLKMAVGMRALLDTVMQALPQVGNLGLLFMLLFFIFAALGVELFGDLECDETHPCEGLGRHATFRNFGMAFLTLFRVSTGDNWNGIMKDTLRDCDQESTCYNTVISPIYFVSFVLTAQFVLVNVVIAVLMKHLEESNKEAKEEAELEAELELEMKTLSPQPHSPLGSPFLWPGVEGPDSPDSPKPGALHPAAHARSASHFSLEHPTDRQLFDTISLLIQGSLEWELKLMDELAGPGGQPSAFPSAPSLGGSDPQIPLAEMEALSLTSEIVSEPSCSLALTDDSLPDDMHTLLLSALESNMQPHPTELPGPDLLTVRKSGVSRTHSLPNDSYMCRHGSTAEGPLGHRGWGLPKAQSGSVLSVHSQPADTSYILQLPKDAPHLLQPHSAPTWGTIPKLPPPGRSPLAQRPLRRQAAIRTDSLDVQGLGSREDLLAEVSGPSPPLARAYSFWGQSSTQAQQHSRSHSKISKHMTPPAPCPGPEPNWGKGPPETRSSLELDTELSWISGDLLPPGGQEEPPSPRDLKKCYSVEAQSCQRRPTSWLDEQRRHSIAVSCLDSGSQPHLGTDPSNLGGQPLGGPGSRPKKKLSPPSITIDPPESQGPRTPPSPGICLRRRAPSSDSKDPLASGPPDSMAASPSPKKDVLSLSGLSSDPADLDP
Sequence of human α1H T-type channels (O95180 whole entry): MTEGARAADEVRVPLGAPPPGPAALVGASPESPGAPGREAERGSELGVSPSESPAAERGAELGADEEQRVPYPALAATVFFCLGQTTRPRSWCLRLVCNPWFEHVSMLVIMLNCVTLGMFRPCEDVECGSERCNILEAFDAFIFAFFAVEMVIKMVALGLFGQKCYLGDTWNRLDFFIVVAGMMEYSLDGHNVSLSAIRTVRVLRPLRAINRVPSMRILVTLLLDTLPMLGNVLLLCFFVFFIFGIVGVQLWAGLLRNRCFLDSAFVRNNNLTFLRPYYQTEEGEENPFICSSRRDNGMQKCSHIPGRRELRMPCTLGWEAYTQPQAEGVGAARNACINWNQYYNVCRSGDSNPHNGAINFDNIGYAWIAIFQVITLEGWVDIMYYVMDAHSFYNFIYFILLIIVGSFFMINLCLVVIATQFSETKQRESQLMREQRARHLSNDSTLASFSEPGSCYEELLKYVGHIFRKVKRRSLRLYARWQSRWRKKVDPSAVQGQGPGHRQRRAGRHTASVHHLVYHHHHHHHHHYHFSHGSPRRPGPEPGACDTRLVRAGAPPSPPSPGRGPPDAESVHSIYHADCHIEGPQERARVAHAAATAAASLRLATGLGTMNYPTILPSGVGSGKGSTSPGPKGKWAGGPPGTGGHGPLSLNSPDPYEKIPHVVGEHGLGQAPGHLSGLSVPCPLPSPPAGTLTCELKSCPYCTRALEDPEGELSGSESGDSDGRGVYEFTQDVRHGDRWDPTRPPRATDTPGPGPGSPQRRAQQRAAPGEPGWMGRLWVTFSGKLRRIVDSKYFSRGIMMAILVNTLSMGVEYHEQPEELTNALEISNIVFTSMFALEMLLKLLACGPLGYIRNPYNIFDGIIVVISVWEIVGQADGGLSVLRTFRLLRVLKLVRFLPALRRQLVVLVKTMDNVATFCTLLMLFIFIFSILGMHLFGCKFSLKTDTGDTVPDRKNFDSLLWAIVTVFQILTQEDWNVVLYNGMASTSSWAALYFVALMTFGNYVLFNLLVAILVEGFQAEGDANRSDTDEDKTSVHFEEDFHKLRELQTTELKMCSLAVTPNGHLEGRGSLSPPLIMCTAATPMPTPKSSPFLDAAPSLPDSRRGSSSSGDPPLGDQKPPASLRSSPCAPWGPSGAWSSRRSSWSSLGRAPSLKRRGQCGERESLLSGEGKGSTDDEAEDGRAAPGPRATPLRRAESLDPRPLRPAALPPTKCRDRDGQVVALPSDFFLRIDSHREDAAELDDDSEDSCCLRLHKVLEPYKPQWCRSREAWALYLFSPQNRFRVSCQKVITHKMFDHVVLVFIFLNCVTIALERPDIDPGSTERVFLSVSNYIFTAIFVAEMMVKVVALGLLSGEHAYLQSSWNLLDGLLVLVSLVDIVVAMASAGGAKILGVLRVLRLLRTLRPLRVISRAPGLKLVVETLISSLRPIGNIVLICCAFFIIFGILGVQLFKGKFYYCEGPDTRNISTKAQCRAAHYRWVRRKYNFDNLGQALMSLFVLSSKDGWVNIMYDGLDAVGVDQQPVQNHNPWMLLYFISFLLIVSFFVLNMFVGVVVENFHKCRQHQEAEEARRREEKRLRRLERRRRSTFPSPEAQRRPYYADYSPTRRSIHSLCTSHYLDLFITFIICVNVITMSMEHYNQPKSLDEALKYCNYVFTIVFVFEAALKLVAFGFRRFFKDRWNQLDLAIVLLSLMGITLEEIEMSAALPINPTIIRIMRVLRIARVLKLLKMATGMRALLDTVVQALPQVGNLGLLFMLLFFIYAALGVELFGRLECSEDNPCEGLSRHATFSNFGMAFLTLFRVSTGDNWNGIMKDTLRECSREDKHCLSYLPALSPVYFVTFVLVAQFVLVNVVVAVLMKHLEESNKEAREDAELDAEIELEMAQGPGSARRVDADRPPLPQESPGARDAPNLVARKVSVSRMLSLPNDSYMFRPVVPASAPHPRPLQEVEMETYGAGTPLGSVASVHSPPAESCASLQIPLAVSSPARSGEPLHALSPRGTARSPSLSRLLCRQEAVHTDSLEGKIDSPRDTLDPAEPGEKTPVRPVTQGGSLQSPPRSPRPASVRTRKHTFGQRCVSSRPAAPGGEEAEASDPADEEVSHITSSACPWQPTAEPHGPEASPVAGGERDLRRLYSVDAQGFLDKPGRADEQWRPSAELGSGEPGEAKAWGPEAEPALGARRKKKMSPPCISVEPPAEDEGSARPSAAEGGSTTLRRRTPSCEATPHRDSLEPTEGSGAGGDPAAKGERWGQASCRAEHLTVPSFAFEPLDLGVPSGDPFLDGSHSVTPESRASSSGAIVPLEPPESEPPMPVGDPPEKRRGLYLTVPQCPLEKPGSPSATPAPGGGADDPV

As usually defined, the IC50 is the concentration at which inhibition is half-maximal. For the molecule `CC(C)(CNC(=O)c1ccc(F)c(C(F)(F)F)c1)S(=O)(=O)c1cccc(C(F)(F)F)c1` [Compound 456, 4-fluoro-N-(2-methyl-2-(3-(trifluoromethyl)phenylsulfonyl)propyl)-3-(trifluoromethyl)benzamide], the IC50 was determined as 710 nM in experiment [1] and 910 nM in experiment [2].

For the molecule `CC(C)(C(=O)Nc1nc2cc(C(F)(F)F)ccc2[nH]1)S(=O)(=O)c1cccc(C(F)(F)F)c1` [Compound 458, 2-methyl-N-(5-(trifluoromethyl)-1H-benzo[d]imidazol-2-yl)-2-(3-(trifluoromethyl)phenylsulfonyl)propanamide], the IC50 amounted to 900 nM in experiment [1] and 1920 nM in experiment [2].

For `CC(C)(CCNC(=O)c1cn2ccc(C(F)(F)F)cc2n1)S(=O)(=O)c1cccc(C(F)(F)F)c1` [Compound 507, N-(3-methyl-3-(3-(trifluoromethyl)phenylsulfonyl)butyl)-7-(trifluoromethyl)imidazo[1,2-a]pyridine-2-carboxamide], the figures for the IC50 in experiment [1] and in experiment [2] were 380 nM and 8300 nM, respectively.

With `CC(C)(CNS(=O)(=O)c1cccc2nsnc12)S(=O)(=O)c1cccc(C(F)(F)F)c1` [Compound 490], the IC50 was 460 nM in experiment [1] and more than 10000 nM in experiment [2].

Take `CN(CCc1ccc(Cl)c(Cl)c1)C(=O)C(C)(C)S(=O)(=O)c1cccc(C(F)(F)F)c1` [Compound 453, N-(3,4-dichlorophenethyl)-N,2-dimethyl-2-(3-(trifluoromethyl)phenylsulfonyl)propanamide]: the IC50 in experiment [1] was determined as 690 nM; in experiment [2], 3930 nM.

With `CC(C)(C)C(=O)Nc1ccncc1C(=O)NCC(C)(C)S(=O)(=O)c1cccc(C(F)(F)F)c1` [Compound 477, N-(2-methyl-2-(3-(trifluoromethyl)phenylsulfonyl)propyl)-4-pivalamidonicotinamide], the IC50 is 540 nM in experiment [1] and more than 10000 nM in experiment [2].

For the molecule `O=C(N[C@H]1CC[C@H](CS(=O)(=O)c2cccc(C(F)(F)F)c2)CC1)C1CCOCC1` [Compound 105, N-((1R,4R)-4-((3-(trifluoromethyl)phenylsulfonyl)methyl)cyclohexyl)tetrahydro-2H-pyran-4-carboxamide], the figures for the IC50 in experiment [1] and in experiment [2] were more than 10000 nM and 2480 nM, respectively.

On to `CC(C)(CNS(=O)(=O)c1cccc2cccnc12)S(=O)(=O)c1cccc(C(F)(F)F)c1` [Compound 491, N-(2-methyl-2-(3-(trifluoromethyl)phenylsulfonyl)propyl)quinoline-8-sulfonamide], for which the half-inhibitory concentration (IC50) in experiment [1] was 470 nM; in experiment [2] it was more than 10000 nM.

As for `CC(C)(CN[C@H]1CC[C@H](C(F)(F)F)CC1)S(=O)(=O)c1cccc(C(F)(F)F)c1` [Compound 517, (1R,4R)-N-(2-methyl-2-(3-(trifluoromethyl)phenylsulfonyl)propyl)-4-(trifluoromethyl)cyclo hexanamine], the half-maximal inhibitory concentration (IC50) was 170 nM in experiment [1] and 6140 nM in experiment [2].

For the molecule `CC(C)(CCNC(=O)c1ccc(C(F)(F)F)cn1)S(=O)(=O)c1cccc(C(F)(F)F)c1` [Compound 470, N-(3-methyl-3-(3-(trifluoromethyl)phenylsulfonyl)butyl)-5-(trifluoromethyl)picolinamide], the IC50 in experiment [1] amounted to 130 nM; in experiment [2], 5840 nM.

With `CN(CCC(C)(C)S(=O)(=O)c1cccc(C(F)(F)F)c1)CC(=O)NC(C)(C)C` [Compound 516, N-tert-butyl-2-(methyl(3-methyl-3-(3-(trifluoromethyl)phenylsulfonyl)butyl)amino)acetamide], the IC50 in experiment [1] was 620 nM; in experiment [2], more than 10000 nM.

On to `CC(C)(CCNC(=O)c1ccc(F)cc1)S(=O)(=O)c1cccc(C(F)(F)F)c1` [Compound 468, 4-fluoro-N-(3-methyl-3-(3-(trifluoromethyl)phenylsulfonyl)butyl) benzamide], for which the values for the IC50 in experiment [1] and in experiment [2] were 350 nM and 4860 nM, respectively.

As to `CC(C)(CCNC(=O)c1ccc(Oc2ccc(F)cc2)cc1)S(=O)(=O)c1cccc(C(F)(F)F)c1` [Compound 520, 4-(4-fluorophenoxy)-N-(3-methyl-3-(3-(trifluoromethyl)phenylsulfonyl)butyl) benzamide], the IC50 in experiment [1] was found to be 110 nM; in experiment [2] it was 470 nM.

Take `CC(C)(C(=O)Nc1ccc(Oc2ccc(C(F)(F)F)nc2)nc1)S(=O)(=O)c1cccc(C(F)(F)F)c1` [Compound 525, 2-methyl-2-(3-(trifluoromethyl)phenylsulfonyl)-N-(6-(6-(trifluoromethyl)pyridin-3-yloxy)pyridin-3-yl) propanamide]: the 50% inhibitory concentration (IC50) came to 470 nM in experiment [1] and 2880 nM in experiment [2].

On to `CC(C)(C)Oc1ccc(CNC(=O)C(C)(C)S(=O)(=O)c2cccc(C(F)(F)F)c2)cc1` [Compound 502, N-(4-tert-butoxybenzyl)-2-methyl-2-(3-(trifluoromethyl)phenylsulfonyl)propanamide], for which the IC50 in experiment [1] worked out at 360 nM; in experiment [2], 3060 nM.

As for `CC(C)(CNS(=O)(=O)c1ccc(OC(F)(F)F)cc1)S(=O)(=O)c1cccc(C(F)(F)F)c1` [Compound 496, N-(2-methyl-2-(3-(trifluoromethyl)phenylsulfonyl)propyl)-4-(trifluoromethoxy) benzenesulfonamide], the IC50 in experiment [1] was 170 nM; in experiment [2] it was 350 nM.

As for `CC(C)(CC(=O)Nc1ccc(Oc2ccc(F)cc2)cc1)S(=O)(=O)c1cccc(C(F)(F)F)c1` [Compound 486, N-(4-(4-fluorophenoxy)phenyl)-3-methyl-3-(3-(trifluoromethyl)phenylsulfonyl)butanamide], the IC50 was determined as 510 nM in experiment [1] and 860 nM in experiment [2].

Take `O=C(N[C@H]1CC[C@@](F)(S(=O)(=O)c2cccc(C(F)(F)F)c2)CC1)[C@H]1CCCCN1` [Compound 531, (R)-N-((1S,4S)-4-fluoro-4-(3-(trifluoromethyl)phenylsulfonyl)cyclohexyl) piperidine-2-carboxamide]: the values for the IC50 in experiment [1] and in experiment [2] were 3560 nM and more than 10000 nM, respectively.

On to `CC(C)(CCNC(=O)c1cc(C(F)(F)F)nc(S(C)(=O)=O)c1)S(=O)(=O)c1cc(F)cc(C(F)(F)F)c1` [Compound 536, N-(3-(3-fluoro-5-(trifluoromethyl)phenylsulfonyl)-3-methylbutyl)-2-(methylsulfonyl)-6-(trifluoromethyl) isonicotinamide], for which the 50% inhibitory concentration (IC50) in experiment [1] is 640 nM; in experiment [2], more than 10000 nM.

In the case of `CC(C)(CCNC(=O)c1ccc(F)c(C(F)(F)F)c1)S(=O)(=O)c1cc(F)cc(C(F)(F)F)c1` [Compound 533, 4-fluoro-N-(3-(3-fluoro-5-(trifluoromethyl)phenylsulfonyl)-3-methylbutyl)-3-(trifluoromethyl)benzamide], the IC50 was found to be 350 nM in experiment [1] and 1080 nM in experiment [2].

Turning to `CS(=O)(=O)c1nc(C(F)(F)F)ccc1C(=O)N[C@H]1CC[C@@](F)(S(=O)(=O)c2cccc(OC(F)(F)F)c2)CC1` [Compound 258, N-((1S,4S)-4-fluoro-4-(3-(trifluoromethoxy)phenylsulfonyl)cyclohexyl)-2-(methylsulfonyl)-6-(trifluoromethyl)nicotinamide], the IC50 in experiment [1] is 7340 nM; in experiment [2], more than 10000 nM.

With `CC(C)(CNC(=O)c1ccc(OCC(F)(F)F)nc1)S(=O)(=O)c1cccc(C(F)(F)F)c1` [Compound 483, N-(2-methyl-2-(3-(trifluoromethyl)phenylsulfonyl)propyl)-6-(2,2,2-trifluoroethoxy) nicotinamide], the IC50 in experiment [1] was 900 nM; in experiment [2], 3850 nM.

For `CC(C)(C(=O)Nc1ccc(Oc2ccc(F)cc2)cc1)S(=O)(=O)c1cccc(C(F)(F)F)c1` [Compound 488, N-(4-(4-fluorophenoxy)phenyl)-2-methyl-2-(3-(trifluoromethyl)phenylsulfonyl)propanamide], the IC50 in experiment [1] turned out to be 290 nM; in experiment [2] it was 2880 nM.

Take `CC(C)(C(=O)Nc1ccc(Oc2ccc(F)cc2)nc1)S(=O)(=O)c1cccc(C(F)(F)F)c1` [Compound 503, N-(6-(4-fluorophenoxy)pyridin-3-yl)-2-methyl-2-(3-(trifluoromethyl)phenylsulfonyl)propanamide]: the values for the IC50 in experiment [1] and in experiment [2] were 190 nM and 2810 nM, respectively.

On to `CC(C)(CNC(=O)c1ccc(Cl)cc1Cl)S(=O)(=O)c1cccc(C(F)(F)F)c1` [Compound 480, 2,4-dichloro-N-(2-methyl-2-(3-(trifluoromethyl)phenylsulfonyl)propyl) benzamide], for which the IC50 in experiment [1] was 720 nM; in experiment [2], 5440 nM.

Turning to `CC(C)S(=O)(=O)c1cc(C(F)(F)F)cnc1C(=O)NCC(C)(C)S(=O)(=O)c1cccc(C(F)(F)F)c1` [Compound 527, 3-(isopropylsulfonyl)-N-(2-methyl-2-(3-(trifluoromethyl)phenylsulfonyl)propyl)-5-(trifluoromethyl)picolinamide], the IC50 in experiment [1] is 70 nM; in experiment [2], more than 10000 nM.

For `CC(C)(C)NC(=O)CNCCC(C)(C)S(=O)(=O)c1cccc(C(F)(F)F)c1` [Compound 471, N-tert-butyl-2-(3-methyl-3-(3-(trifluoromethyl)phenylsulfonyl)butylamino) acetamide], the IC50 in experiment [1] was 610 nM; in experiment [2] it was more than 10000 nM.

With `CC(C)(CCS(=O)(=O)c1cccc(OC(F)(F)F)c1)S(=O)(=O)c1cccc(C(F)(F)F)c1` [Compound 463, 1-(3-methyl-3-(3-(trifluoromethyl)phenylsulfonyl)butylsulfonyl)-3-(trifluoromethoxy)benzene], the IC50 is 350 nM in experiment [1] and more than 10000 nM in experiment [2].

In the case of `O=C(N[C@H]1CC[C@@](F)(S(=O)(=O)c2cccc(C(F)(F)F)c2)CC1)[C@@H]1CCCCN1` [Compound 532, (S)-N-((1S,4R)-4-fluoro-4-(3-(trifluoromethyl)phenylsulfonyl)cyclohexyl) piperidine-2-carboxamide], the concentration for half-maximal inhibition (IC50) in experiment [1] is 1630 nM; in experiment [2], more than 10000 nM.
